The target in this assay is T1, carboxypeptidase U (Homo sapiens, UniProt Q96IY4).
T1 sequence (Q96IY4 115-423): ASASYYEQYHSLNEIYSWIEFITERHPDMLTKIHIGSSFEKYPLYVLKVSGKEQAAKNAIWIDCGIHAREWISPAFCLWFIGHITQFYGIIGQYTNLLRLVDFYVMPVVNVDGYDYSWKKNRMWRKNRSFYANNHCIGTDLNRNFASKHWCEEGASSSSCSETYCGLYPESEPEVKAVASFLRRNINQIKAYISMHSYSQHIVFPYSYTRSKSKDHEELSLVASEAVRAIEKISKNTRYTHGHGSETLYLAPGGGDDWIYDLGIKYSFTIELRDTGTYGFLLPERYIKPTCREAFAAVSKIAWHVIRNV
As to the kind of experiment: carboxypeptidase U inhibition assay (Hendriks et al., Clinical Chemistry 31, 1936-1939 (1985)). The format is biochemical. The settings on record: assay of Hendriks, Scharpé and van Sande. The text has this:
The inhibiting effect of the compounds of the present invention was estimated using the assay described in: Dirk Hendriks, Simon Scharpé and Marc van Sande, Clinical Chemistry, 31, 1936-1939 (1985); and Wei Wang, Dirk F. Hendriks, Simon S. Scharpé, The Journal of Biological Chemistry, 269, 15937-15944 (1994).
The activities of certain Examples in the assay described in: Dirk Hendriks, Simon Scharpé and Marc van Sande, Clinical Chemistry, 31, 1936-1939 (1985) are presented in Table I below.

As to `Nc1ncc(CC(C(=O)O)C(S)CCc2ccccc2)s1` (stereo not shown) [Example 24, 2-[(2-Amino-1,3-thiazol-5-yl)methyl]-3-mercapto-5-phenylpentanoic acid], 6300 nM corresponded to half-maximal inhibition (IC50).

In turn, `CN(Cc1ccccc1)C(=O)c1cccc(CCC(S)C(Cc2ccc(N)nc2)C(=O)O)c1` (stereo not shown) [Example 41] displayed an IC50 of 600 nM. Against the preceding compound, the IC50 is about 10-fold lower. In turn, `Nc1ccc(CC(C(=O)O)C(S)CCc2cccc(C(=O)N3CCc4ccccc4C3)c2)cn1` (stereo not shown) [Example 28, 2-[(6-Aminopyridin-3-yl)methyl]-5-[3-(3,4-dihydroisoquinolin-2(1H)-ylcarbonyl)phenyl]-3-mercaptopentanoic acid] showed a half-inhibitory concentration (IC50) of 800 nM. Compound `Nc1ccc(CC(C(=O)O)C(S)CCc2cccc(Cl)c2)cn1` (stereo not shown) [Example 6, 2-[(6-Aminopyridin-3-yl)methyl]-5-(3-chlorophenyl)-3-mercaptopentanoic acid] displayed an IC50 of 800 nM. This counts as sub-micromolar.

`N#CCc1ccc(CCC(S)C(Cc2ccc(N)nc2)C(=O)O)cc1` (stereo not shown) [Example 11, 2-[(6-Aminopyridin-3-yl)methyl]-5-[4-(cyanomethyl)phenyl]-3-mercaptopentanoic acid] gave an IC50 of 800 nM. For the compound `Nc1ccc(CC(C(=O)O)C(S)CCc2cccc(C(=O)OCCc3c(Cl)cccc3Cl)c2)cn1` (stereo not shown) [Example 31, 2-[(6-Aminopyridin-3-yl)methyl]-5-(3-{[2-(2,6-dichlorophenyl)ethoxy]carbonyl}phenyl)-3-mercaptopentanoic acid], the IC50 stood at 600 nM. In turn, `O=C(O)C(CC1C2CCC1CNC2)C(S)CCc1ccccc1` (stereo not shown) [Example 25, 2-(3-Azabicyclo[3.2.1]oct-8-ylmethyl)-3-mercapto-5-phenylpentanoic acid] displayed an IC50 of 4000 nM. This IC50 lies about 6.7-fold higher than the previous one. In the case of `Nc1ccc(CC(C(=O)O)C(S)CCc2ccc3c(c2)OCO3)cn1` (stereo not shown) [Example 7, 2-[(6-Aminopyridin-3-yl)methyl]-5-(1,3-benzodioxol-5-yl)-3-mercaptopentanoic acid] it was 800 nM; in that of `CCOC(=O)C1CCN(C(=O)c2cccc(CCC(S)C(Cc3ccc(N)nc3)C(=O)O)c2)CC1` (stereo not shown) [Example 43, 2-[(6-Aminopyridin-3-yl)methyl]-5-(3-{[4-(ethoxycarbonyl)piperidin-1-yl]carbonyl}phenyl)-3-mercaptopentanoic acid], 2000 nM.

`Nc1ccc(CC(C(=O)O)C(S)CCc2cccc(C(=O)NCCF)c2)cn1` (stereo not shown) [Example 33, 2-[(6-Aminopyridin-3-yl)methyl]-5-(3-{[(2-fluoroethyl)amino]carbonyl}phenyl)-3-mercaptopentanoic acid] displayed an IC50 of 600 nM. `Nc1ccc(CC(C(=O)O)C(S)CCc2cccc(C(=O)N3CCCC3)c2)cn1` (stereo not shown) [Example 42, 2-[(6-Aminopyridin-3-yl)methyl]-3-mercapto-5-[3-(pyrrolidin-1-ylcarbonyl)phenyl]pentanoic acid] returned an IC50 of 600 nM. In turn, `CN(CC#N)S(=O)(=O)c1cccc(CCC(S)C(Cc2ccc(N)nc2)C(=O)O)c1` (stereo not shown) [Example 47, 2-[(6-Aminopyridin-3-yl)methyl]-5-(3-{[(cyanomethyl)(methyl)amino]-sulfonyl}phenyl)-3-mercaptopentanoic acid] gave an IC50 of 1000 nM. In the case of `Nc1ccc(CC(C(=O)O)C(S)CCC2CCCS2)cn1` (stereo not shown) [Example 18, 2-[(6-Aminopyridin-3-yl)methyl]-3-mercapto-5-(tetrahydro-2-thienyl)pentanoic acid], the IC50 was determined as 1000 nM.

The term IC50 denotes the concentration at which inhibition is half-maximal.
